# From ChEMBL document CHEMBL1141458, “Prospects for metabotropic glutamate 1 receptor antagonists in the treatment of neuropathic pain” (J Med Chem, 2007)
# Key:
# Assay type in all cases: functional
# [1] = molecular target: T1, Metabotropic glutamate receptor 1 (Homo sapiens, UniProt Q13255); test: Antagonist activity at mGlu1 receptor
# [2] = molecular target: T1, Metabotropic glutamate receptor 1; test: Antagonist activity at human mGlu1 receptor
# [3] = molecular target: T2, Metabotropic glutamate receptor 2 (Homo sapiens, UniProt Q14416); test: Antagonist activity at mGlu2 receptor
# T2 sequence (Q14416 whole entry): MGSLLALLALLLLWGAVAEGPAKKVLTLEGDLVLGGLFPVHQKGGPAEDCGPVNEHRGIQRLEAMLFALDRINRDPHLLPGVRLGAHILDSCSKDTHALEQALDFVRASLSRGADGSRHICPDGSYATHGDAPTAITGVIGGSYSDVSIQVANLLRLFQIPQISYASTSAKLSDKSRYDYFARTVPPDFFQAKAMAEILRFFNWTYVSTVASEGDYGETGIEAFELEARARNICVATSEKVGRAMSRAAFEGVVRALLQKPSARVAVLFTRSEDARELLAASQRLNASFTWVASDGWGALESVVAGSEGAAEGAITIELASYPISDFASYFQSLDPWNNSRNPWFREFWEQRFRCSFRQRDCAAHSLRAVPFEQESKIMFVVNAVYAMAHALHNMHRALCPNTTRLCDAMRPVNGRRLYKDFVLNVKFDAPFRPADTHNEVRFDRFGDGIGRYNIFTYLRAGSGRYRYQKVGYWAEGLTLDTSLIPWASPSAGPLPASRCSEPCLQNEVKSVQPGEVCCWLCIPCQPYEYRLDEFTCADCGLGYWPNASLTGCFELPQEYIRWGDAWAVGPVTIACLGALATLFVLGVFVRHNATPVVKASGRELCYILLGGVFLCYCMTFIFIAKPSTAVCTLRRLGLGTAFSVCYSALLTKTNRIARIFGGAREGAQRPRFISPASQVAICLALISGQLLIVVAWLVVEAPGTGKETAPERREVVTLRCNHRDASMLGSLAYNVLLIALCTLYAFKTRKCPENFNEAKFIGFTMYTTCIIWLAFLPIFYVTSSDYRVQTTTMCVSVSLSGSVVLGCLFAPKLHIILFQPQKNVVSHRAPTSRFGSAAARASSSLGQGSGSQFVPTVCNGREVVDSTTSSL
# [4] = test system: Mus musculus; test: Effect on pain in po dosed mouse in early phase of formalin assay
# [5] = test system: Mus musculus; test: Effect on pain in po dosed mouse in late phase of formalin assay
# [6] = test system: Rattus norvegicus; test: Effect on pain in ip dosed rat in late phase of formalin assay
# [7] = molecular target: T1, Metabotropic glutamate receptor 1; test: Antagonist activity at human mGlu1b receptor
# [8] = test system: Rattus norvegicus; test: Effect on CFA-induced hyperalgesia in ip dosed rat
# [9] = test system: Rattus norvegicus; test: Effect on carrageenan model of inflammatory pain in ip dosed rat
# [10] = molecular target: T2, Metabotropic glutamate receptor 2; test: Agonist activity at mGlu2 receptor
# T1 sequence (Q13255 whole entry): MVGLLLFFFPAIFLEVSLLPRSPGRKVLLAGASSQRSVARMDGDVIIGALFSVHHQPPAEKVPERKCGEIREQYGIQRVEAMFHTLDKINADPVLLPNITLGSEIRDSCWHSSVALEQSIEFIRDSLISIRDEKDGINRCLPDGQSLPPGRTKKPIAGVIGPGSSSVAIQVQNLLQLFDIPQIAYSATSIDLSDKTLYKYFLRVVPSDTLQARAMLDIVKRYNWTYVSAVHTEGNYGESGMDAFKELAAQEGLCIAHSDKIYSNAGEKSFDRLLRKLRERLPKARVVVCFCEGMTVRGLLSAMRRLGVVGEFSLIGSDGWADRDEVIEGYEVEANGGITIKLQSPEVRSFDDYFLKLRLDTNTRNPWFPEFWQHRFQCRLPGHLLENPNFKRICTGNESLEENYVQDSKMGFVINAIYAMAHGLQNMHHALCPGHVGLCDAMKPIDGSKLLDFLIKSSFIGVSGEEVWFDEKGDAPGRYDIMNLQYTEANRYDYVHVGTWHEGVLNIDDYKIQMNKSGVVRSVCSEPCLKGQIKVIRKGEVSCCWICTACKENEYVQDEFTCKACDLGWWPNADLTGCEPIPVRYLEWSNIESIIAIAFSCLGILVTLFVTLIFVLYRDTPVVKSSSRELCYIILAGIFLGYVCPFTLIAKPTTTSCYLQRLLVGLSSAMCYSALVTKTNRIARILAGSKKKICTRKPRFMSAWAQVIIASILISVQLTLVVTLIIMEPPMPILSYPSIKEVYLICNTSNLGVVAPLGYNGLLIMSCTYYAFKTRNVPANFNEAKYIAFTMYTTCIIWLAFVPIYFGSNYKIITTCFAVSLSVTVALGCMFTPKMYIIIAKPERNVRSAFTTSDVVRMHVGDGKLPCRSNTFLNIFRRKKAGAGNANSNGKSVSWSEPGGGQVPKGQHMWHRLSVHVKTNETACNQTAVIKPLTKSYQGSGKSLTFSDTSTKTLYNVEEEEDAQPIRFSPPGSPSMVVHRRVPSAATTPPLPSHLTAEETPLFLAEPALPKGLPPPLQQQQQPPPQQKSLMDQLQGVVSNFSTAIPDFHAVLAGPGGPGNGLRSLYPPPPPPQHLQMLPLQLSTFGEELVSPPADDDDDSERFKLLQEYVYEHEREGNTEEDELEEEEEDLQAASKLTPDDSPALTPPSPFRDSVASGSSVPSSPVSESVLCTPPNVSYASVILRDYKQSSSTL
structure (smiles),measurement,setting,value
N[C@H](C(=O)O)c1ccc(O)c(C(=O)O)c1,IC50,[1],40 µM
CO[C@H]1CC[C@@H](C(=O)c2ccc3nc4c(cc3c2)CCCO4)CC1,IC50,[2],0.00121 µM
C=C1C[C@@H]2COC(=O)[C@]2(Cc2ccc3ccccc3c2)C1,IC50,[1],0.16 µM
Cc1c(C2=CCC(C(=O)N(C)C(C)C)CC2)nnn1-c1cccnc1F (configuration not stated),IC50,[1],0.006 µM
COc1ccc(Nc2ncnc3ccc(OC)cc23)cc1,IC50,[1],0.096 µM
C[C@@](N)(C(=O)O)c1ccc(C(=O)O)cc1,IC50,[1],4.3 µM
same,IC50,[3],4.3 µM
CCCOC(=O)c1[nH]c(C)c(C(=O)OC(C)C(C)(C)C)c1C (configuration not stated),ED50,[4],0.3 mg/kg
same,ED50,[5],0.3 mg/kg
same,ED50,[6],3 mg/kg
CCOC(=O)C12CC1/C(=N\O)c1ccccc1O2 (configuration not stated),IC50,[7],6.6 µM
CCc1ccc(-n2cnc3c(sc4nccc(N(C)C)c43)c2=O)cc1,ED50,[6],15 µmol/kg
same,ED50,[8],15 µmol/kg
same,ED50,[9],11 µmol/kg
N[C@H](C(=O)O)c1ccc(C(=O)O)c(O)c1,EC50,[10],48 µM
NC(CC1c2ccccc2Sc2ccccc21)(C(=O)O)C1CC(C(=O)O)C1 (configuration not stated),IC50,[1],1 µM
N[C@H](C(=O)O)c1ccc(C(=O)O)cc1,IC50,[1],10 µM
